Data taken from publication PMC5354587, “Ergosterone-coupled Triazol molecules trigger mitochondrial dysfunction, oxidative stress, and acidocalcisomal Ca^2+ release in Leishmania mexicana promastigotes” (Microbial Cell, 2015).
Like-named read-outs stand apart in the source and are kept apart here.

Assays:
Format in all cases: cell-based
[1] = test system: Leishmania mexicana promastigotes; experiment: Half-inhibitory concentration on parasites, modified MTT method; conditions: for IC50: read-out: IC50 on L. mexicana promastigotes; for Selectivity index: promastigotes compared to human dermic fibroblasts; for growth inhibition on promastigotes: concentrations even higher than 100 μM
Description: Parasites were treated with different concentrations of the synthesized compounds for 48 hours to determine their cytotoxic effect. A dose dependent growth inhibition was observed after this time.
(§1) Promastigotes of Leishmania mexicana Bel 21 strain were cultured at 26°C in Liver Infusion Tryptone (LIT) medium supplemented with 10% fetal bovine serum (Internegocios). Primary cultures of human dermic fibroblasts were performed at 37°C in DMEN medium (Sigma) supplemented with 10% fetal bovine serum in a CO2 incubator at 5% CO2.
(§2) To determine the IC50 in parasites and human fibroblasts the protocol described by was followed. Briefly, a suspension of 2 x 10^6 parasites per mL^-1 or 5 x 10^3 fibroblasts per well were transferred into 96 well plates and different concentrations of the compounds were added. Plates were incubated under the corresponding culture conditions for 48 or 72 hours for L. mexicana or human fibroblasts, respectively. Thereafter, parasites plates were centrifuged prior to the elimination of the supernatant. Cell viability was measured by the modified MTT method, where cells were incubated with the MTT substrate at 0.2 mg x mL^-1 for 4 hours. Colored crystals formed were solubilized in DMSO and absorbance was measured at 570 nm. IC50 was obtained from a dose response curve using the software OriginLab Pro 6.0^©.

[2] = test system: human dermic fibroblasts; experiment: Half-inhibitory concentration on human fibroblasts, modified MTT method; conditions: 72 hours
Description: as §1, §2

[3] = test system: Leishmania mexicana promastigotes; experiment: Mitochondrial membrane potential, Mitotracker Red CMXROS, flow cytometry
Description: In order to determine the energetic state of the mitochondrion after parasites treatment, the compound Mitotraker Red CMXROS was used. As described in the Materials and Methods section, parasites were treated for 6, 16, 24, and 48 hours with each molecule at its IC50, then incubated with Mitotraker Red CMXROS (50 nM) for 30 minutes under culture conditions, and finally analyzed by flow cytometry. […] Additionally, to rule out if Erg itself (the non-azole fraction of the conjugates) could be responsible for this hyperpolarization, parasites were treated with this compound and ΔΨmit was monitored for up to 48 hours by flow cytometry.
Mitotracker CMX Red(Invitrogen) was used to determine the mitochondrial membrane potential (Ψmit) of treated parasites. After 6, 16, 24, and 48 hours treatment, cells were incubated in culture medium with 50 nM Mitotracker CMX Red for 30 minutes at 26°C in the dark. Thereafter, parasites were washed twice with PBS, resuspended in 1 mL buffer, and analyzed using a cytometer (Beckman Coulter). Parasites incubated with valinomycin (500 nM for 30 minutes) were used as positive control. To evaluate the effect of ergosterone coupled molecules on the mitochondrial membrane potential immediately after molecule addition we used the fluorophore rhodamine-123, a mitochondrion-specific cationic dye, which distributes across the inner mitochondrial membranes strictly according to their membrane potential, as described before. Briefly, 1 x 10^7 parasites were washed twice with rhodamine 123 loading buffer (20 mM Tris-HCl, 130 mM KCl, 1 mM MgCl2, and 2 mM KH2PO4) and incubated with 20 μM rhodamine 123 for 45 minutes at 29°C under agitation. Samples were washed twice, resuspended in 500 μL of the same buffer, and transferred to a quartz cuvette. Fluorescence (ex 488 nm and em 530 nm) was registered in a Hitachi F-7000 Spectrofluorimeter. FCCP was used as control for mitochondrial membrane depolarization.

[4] = test system: Leishmania mexicana promastigotes; experiment: Reactive oxygen species (superoxide) determination with dihydroethidium; conditions: Erg-GTr/Erg-GTr2 treated cells; data not shown
Description: To evaluate the intracellular level of reactive oxygen species (ROS) after Erg-GTr or Erg-GTr2 treatment, parasites were incubated with dihydroethidium, which become oxidized in the presence of the superoxide anion to form the fluorescent DNA-intercalating agent ethidium, i.e. the emitted fluorescence is proportional to the amount of ROS present. Figure 6A represents a ROS production kinetics analysis performed between 6 and 48 hours post-treatment with both molecules. […] In fact, ROS levels increased already during the first 6 hours of treatment when compared with control cells, which maintained a ROS level lower than 2% throughout the whole kinetic study.
Figure 6 FIGURE 6: Superoxide production after Erg-GTr or Erg-GTr2 treatment. Parasites were treated with 1.4 μM Erg-GTr or 2.3 μM Erg-GTr2 or DMSO (control cells), harvested after different time points and then prepared to measure intracellular superoxide using dyhidroethidium. (A) Superoxide production kinetics in control and treated parasites. […] (B) Representative FACS histograms showing the superoxide-sensitive fluorescence of control and treated promastigotes after 24 hours incubation. The percentages were determined using the WinMDI software. […]
Dihydroethidium (Invitrogen) was used to detect the intracellular level of superoxide anion. […] Thereafter, samples were washed with PBS and immediately analyzed in a Beckman Coulter Cytometer.

[5] = test system: Leishmania mexicana promastigotes; experiment: Alkalinization of acidocalcisomes, acridine orange; conditions: Erg-GTr 1.4 μM or Erg-GTr2 2.4 μM; nigericin 2 μM as control
Source text: Leishmania can store Ca^2+ in different compartments like the endoplasmic reticulum, the mitochondrion, and the acidocalcisomes. The major Ca^2+ reservoir is represented by this last organelle. In order to analyze if the [Ca^2+]cyt increase is due to its release from acidocalcisomes, parasites were charged with acridine orange and assayed fluorimetrically. Since acridine orange accumulates in acidic compartments, it allows detection of alkalinization.
To evaluate the effect of ergosterone coupled molecules on the Ca^2+ reservoir organelle acidocalcisome, parasites were stained with acridine orange as described previously. Briefly, 1 x 10^7 parasites were washed twice with loading buffer (20 mM Tris-HCl, 130 mM KCl, 1 mM MgCl2, and 2 mM KH2PO4) and incubated for 5 minutes with acridine orange (5 μM). Samples were washed twice, resuspended in 500 μL of the same buffer, and transferred to a stirred quartz cuvette at 29°C. Fluorescence (ex 488 nm and em 530 nm) was registered in a Hitachi F-7000 Spectrofluorimeter. Nigericin was used as control for acidocalcisome alkalinization.

Compound | Selectivity index [1] | IC50 ([1]; Leishmania mexicana, 48 h) [µM] | growth inhibition on promastigotes ([1]; 48 hours) | other results
1-[5-hydroxy-10-methyl-3-oxo-17-(1,4,5-trimethyl-hex-2-enyl)-1,2,3,4,5,9,10,11,12,13,14,15,16,17-tetradecahydro-cyclopenta[a]phenanthren-6-ylidene-hydrazinocarbonyl]-pyridinium chloride [Erg-GP] | 1.0 |  |  | IC50 ([1]; 48 hours, MTT): 42.4 ± 2.8 µM; IC50 [2]: 44.5 µM
CC(C)C(C)C=CC(C)C1CCC2C3=CC=C4CC(O)CCC4(C)C3CCC21C (stereo not shown) [Ergosterol, 10,13-dimethyl-17-(1,4,5-trimethyl-hex-2-enyl)-2,3,4,9,10,11,12,13,14,15,16,17-dodecahydro-1H-cyclopenta[a]phenanthren-3-ol, reference compound] | 0.8 | 33.8 ± 4.7 |  | IC50 ([2]; Fibroblast): 27 ± 3.5 µM
CC(C)C(C)C=CC(C)C1CCC2C3=CC(=O)C4(O)CC(=O)CCC4(C)C3CCC21C (stereo not shown) [Ergosterone, 5-hydroxy-10,13-dimethyl-17-(1,4,5-trimethyl-hex-2-enyl)-1,4,5,9,10,11,12,13,14,15,16,17-dodecahydro-2H-cyclopenta[a]phenanthrene-3,6-dione] | 3.1 | 9 ± 0.7 |  | IC50 ([2]; Fibroblast): 28.3 ± 8.5 µM; effect on inner mitochondrial membrane potential (ΔΨmit) ([3]; treatment up to 48 hours, flow cytometry): No differences
NNC(=O)[n+]1ccccc1.[Cl-] [GP, 1-hydrazinocarbonyl-pyridinium chloride, reference compound] |  | > 200 | did not show inhibition | 
C[N+](C)(C)CC(=O)NN [GT, hydrazinocarbonylmethyl-trimethyl-ammonium chloride, reference compound] |  | > 200 | did not show inhibition | 
NNC(=O)n1cnnc1 [GTr, [1,2,4]triazole-4-carboxylic acid hydrazide] |  | 158 | did not show inhibition | 
CC(=O)N[C@@H](CS)C(=O)O [N-acetyl-cysteine, reference compound] |  |  |  | effect of ROS scavenger on mitochondrion hyperpolarization ([3]; Erg-GTr/Erg-GTr2 treated cells, data not shown): did not prevent; effect of ROS scavenger on ROS formation [4]: revert partially
CO[C@@H]1C[C@@H](C[C@H]2CC[C@H](C)[C@H]([C@@H](C)C(=O)O)O2)O[C@]2(O[C@](C)([C@H]3CC[C@@](C)([C@@H]4O[C@@H]([C@H]5O[C@@](O)(CO)[C@H](C)C[C@@H]5C)C[C@@H]4C)O3)C[C@H]2C)[C@@H]1C [nigericin, reference compound] |  |  |  | acridine orange fluorescence (acidocalcisome alkalinization) [5]: further reduction of the acidity
[5-hydroxy-10-methyl-3-oxo-17-(1,4,5-trimethyl-hex-2-enyl)-1,2,3,4,5,9,10,11,12,13,14,15,16,17-tetradecahydro-cyclopenta[a]phenanthren-6-ylidene-hydrazinocarbonylmethyl]-trimethyl-ammonium chloride [Erg-GT] | 3.5 |  |  | IC50 ([1]; 48 hours, MTT): 10.4 ± 0.2 µM; IC50 [2]: 36.4 µM
